Consider two molecules from patent US20230033195A1, “METHODS AND COMPOSITIONS FOR IMPROVING COGNITIVE FUNCTION” (THE JOHNS HOPKINS UNIVERSITY, priority 2011, published 2023).

For series [1], the system named is memory-impaired aged rats. Particulars: cited from earlier work.
The conditions of series [2]: aged rats, chronic subcutaneous 100 mg/kg/day; cited from earlier work.
The test system of another series is aged-impaired (AI) rats. Kind of series: eight-arm Radial Arm Maze (RAM) task with one-hour delay, spatial memory retention. The format is in vivo, rat.

Take `CCCC(CCC)C(=O)[O-].[Na+]` [sodium valproate]: in series [1] (chronic subcutaneous 100 mg/kg/day), the “performance in a memory test” value is recorded as “significantly improved”. For the same molecule, the “blood total valproate level” value in series [2] is 10 µg/ml plasma.

As to `CCCC(CCC)C(=O)O` [valproate, 2-propylpentanoate], the “treatment of cognitive impairment” value in series [1] (chronic subcutaneous 50 mg/kg/day) is “not effective”. The “effective in reducing the number of errors, on its own” value in the series with aged-impaired (AI) rats (valproate subcutaneous 25 mg/kg) is “not”; with aged-impaired (AI) rats (valproate subcutaneous 50 mg/kg) it was “not”; in the series on aged-impaired (AI) rats (valproate subcutaneous 100 mg/kg) it was “effective”.
